According to patent publication US20060167229A1, “Biologically active peptide conjugates” (priority 2002, published 2006):
Entries after “also recorded” stand apart in the source; their conditions may differ. Marks after values point to notes of the source that are not given here. Ends that are not written are not given here.

How the values were obtained:
Type in all cases: in vivo, BALB/c mice
NK cell = NK cell cytotoxicity activity test (spleen cells of treated mice against YAC-1 target cells, MTT); conditions: for NK cell cytotoxic activity, X ± SD (%): healthy mice; for effect on the cytotoxic activity of NK cells (summary): statistically significant difference from saline in any of the dosage groups 0.5-500 μg/kg/day
Method in brief: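 Mice (10 per group) dosed i.p. once daily for 15 days in saline; spleen cells harvested the next day. Splenocytes (4×10^6/ml) co-cultured with YAC-1 targets (1×10^5/ml), in triplicate per mouse. Viability by MTT (1 mg/ml, 4 h, 37 °C), read at OD570 against 630 nm.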

anti-SRBC antibody = experiment: Sheep Red Blood Cell (SRBC) hemolysis test, antibody formation; conditions: for anti-SRBC antibody formation, X ± SD (Unit): healthy mice, SRBC day 12 (IFN-γ, IL-2 3×10^5 IU/kg/day), saline 32 ± 7; for effect on the synthesis of anti-SRBC antibody upon the antigenic challenge (summary): statistically significant difference from saline in any of the dosage groups 0.5-500 μg/kg/day
Method in brief: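 Mice immunized intraperitoneally with 0.2 ml SRBC on day 12; serum taken on day 16, diluted 500-fold. Serum incubated with 2% SRBC and guinea pig complement 10 min at 37° C; released haemoglobin read at OD540 with Drabkin solution. Serum index = (sample OD540 ÷ reference OD540) × 500.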

mononuclear phagocyte = experiment: Carbon particle clearance test, phagocytosis function; parameters: key to X ± SD (phagocytotic index): α = cube root of K × (body weight ÷ liver+spleen weight); conditions: for X ± SD (phagocytotic index): healthy mice, saline 5.1 ± 0.6; for effect on the phagocytotic activity of mononuclear phagocyte (summary): statistically significant difference from saline in any of the dosage groups 0.5-500 μg/kg/day
Method in brief: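 Clearance index K came from OD680 of blood sampled 1 and 5 min after tail-vein India ink ([…], diluted 5×), given on day 16. Phagocytic index α combined K with liver, spleen […] weights taken the same day.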

thymus gland = experiment: Immunity organ weight test, thymus gland index; conditions: for weight of thymus gland (thymus gland index), X ± SD (%): healthy mice, saline 0.12 ± 0.02; for effect on the weight of the thymus gland (summary): statistically significant difference from saline in any of the dosage groups 0.5-500 μg/kg/day
Description: One day after the last test substance administration (day 16), the liver, spleen, and thymus gland were separated and blotted dry with filter paper and weighed. The phagocytosis index α was calculated as below: α=(^3√{square root over ( )}K)(W÷WLS)
Thymus gland index (%)=(thymus weight/body weight)×100%

[1] = peptide 50 μg/kg/day i.p. 15 days (IFN-γ, IL-2 3×10^5 IU/kg/day), saline 56 ± 8
[2] = peptide 0.5 μg/kg/day i.p. 15 days
[3] = peptide 5 μg/kg/day i.p. 15 days
[4] = peptide 50 μg/kg/day i.p. 15 days
[5] = peptide 500 μg/kg/day i.p. 15 days
[6] = peptide 5 μg/kg/day i.p. 15 days (IFN-γ, IL-2 3×10^5 IU/kg/day)
[7] = peptide 500 μg/kg/day i.p. 15 days (IFN-γ, IL-2 3×10^5 IU/kg/day)
[8] = peptide 5 μg/kg/day i.p. 15 days (IFN-γ, IL-2 3×10^5 IU/kg/day), saline 60 ± 9
[9] = peptide 0.5 μg/kg/day i.p. 15 days (IFN-γ, IL-2 3×10^5 IU/kg/day)
[10] = peptide 50 μg/kg/day i.p. 15 days (IFN-γ, IL-2 3×10^5 IU/kg/day)
[11] = peptide 500 μg/kg/day i.p. 15 days (IFN-γ, IL-2 3×10^5 IU/kg/day), saline 63 ± 9

Row | Substance | NK cell cytotoxic activity, X ± SD (%) (NK cell; [1]) | effect on the cytotoxic activity of NK cells (summary) (NK cell) | anti-SRBC antibody formation, X ± SD (Unit) (anti-SRBC antibody; [2]) | anti-SRBC antibody formation, X ± SD (Unit) (anti-SRBC antibody; [3]) | anti-SRBC antibody formation, X ± SD (Unit) (anti-SRBC antibody; [4]) | anti-SRBC antibody formation, X ± SD (Unit) (anti-SRBC antibody; [5]) | X ± SD (phagocytotic index) (mononuclear phagocyte; [6]) | X ± SD (phagocytotic index) (mononuclear phagocyte; [7]) | effect on the phagocytotic activity of mononuclear phagocyte (summary) (mononuclear phagocyte) | NK cell cytotoxic activity, X ± SD (%) (NK cell; peptide 0.5 μg/kg/day i.p. 15 days (IFN-γ, IL-2 3×10^5 IU/kg/day), saline 58 ± 7) | NK cell cytotoxic activity, X ± SD (%) (NK cell; [8]) | effect on the synthesis of anti-SRBC antibody upon the antigenic challenge (summary) (anti-SRBC antibody) | weight of thymus gland (thymus gland index), X ± SD (%) (thymus gland; [9]) | weight of thymus gland (thymus gland index), X ± SD (%) (thymus gland; [6]) | weight of thymus gland (thymus gland index), X ± SD (%) (thymus gland; [10]) | effect on the weight of the thymus gland (summary) (thymus gland) | NK cell cytotoxic activity, X ± SD (%) (NK cell; [11]) | weight of thymus gland (thymus gland index), X ± SD (%) (thymus gland; [7]) | X ± SD (phagocytotic index) (mononuclear phagocyte; [10])
1 | FNFVPP [CMS003] | 85 ± 6 % | increase | 2 ± 1 Unit | 91 ± 24*^@ Unit | 52 ± 11 Unit | 96 ± 18*^@ Unit | 6.9 ± 0.9*^ | 6.6 ± 0.7 | enhance | – | – | – | – | – | – | – | – | – | –
2 | LGMQACGIHETTY [CMS012] | 40 ± 9 % | – | – | 81 ± 22*^@ Unit | 50 ± 14 Unit | 141 ± 21*^@^ Unit | – | – | – | 77 ± 6 % | 85 ± 7 % | enhance | 0.22 ± 0.06*^ % | 0.27 ± 0.06*^@^ % | 0.26 ± 0.02*^@^ % | increase | – | – | –
3 | PTTKTYFPHF [CMS001] | 85 ± 10 % | increase | – | 110 ± 24*^@ Unit | – | – | – | – | – | – | – | enhance | – | 0.22 ± 0.05 % | – | increase | – | – | –
4 | Phe Gln Gln Gln (FQQQ; printed: Phe Gln Gln Gln) [CMS032] | – | increase | – | 157 ± 37*^@^ Unit | 131 ± 24*^@^ Unit | – | – | – | – | – | – | enhance | 0.21 ± 0.06 % | 0.29 ± 0.04*^@^ % | 0.27 ± 0.03*^@^ % | increase | 87 ± 5 % | 0.25 ± 0.03*^@^ % | –
5 | Pro Gln Asn Phe (PQNF; printed: Pro Gln Asn Phe) [CMS034] | – | increase | 20 ± 2 Unit | 172 ± 37*^@^ Unit | 136 ± 11*^@^ Unit | – | – | – | – | – | 90 ± 5 % | enhance; also recorded: inhibit | – | 0.27 ± 0.06*^@^ % | 0.19 ± 0.04*^ % | increase | 85 ± 9 % | 0.20 ± 0.05*^ % | –
6 | Pro Ser Ile Vat Gly Arg Pro Arg His Gln Gly Val Met (PSIVGRPRHQGVM; listed as Sus scrofa) [CMS015] | 78 ± 8 % | increase | 13 ± 4 Unit | 94 ± 37*^@ Unit | 54 ± 9*^@ Unit | 136 ± 22*^@^ Unit | – | – | – | – | – | enhance; also recorded: inhibit | – | 0.20 ± 0.08 % | – | increase | – | – | –
7 | VGMGQKDSY | – | – | 12 ± 3 Unit | 118 ± 20*^@^ Unit | – | 91 ± 26*^@ Unit | 6.8 ± 0.6*^ | – | enhance | – | – | – | – | 0.24 ± 0.02*^@^ % | 0.20 ± 0.03*^@^ % | increase | – | 0.19 ± 0.02 % | 6.7 ± 0.9*^
